Test results: PubChem BioAssay (NCI)
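Interpolation was linear, between the two tested concentrations surrounding the appropriate level; five concentrations were tested over 48 hours in 96-well plates. The concentration for 50% growth inhibition is given as GI50. TGI denotes the concentration required for complete inhibition of growth.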

Assays:
Assay in all cases: NCI anticancer screen, dose series, 48 h
PC-3 prostate = system: PC-3 prostate
SW-620 colon = system: SW-620 colon
SK-MEL-2 melanoma = system: SK-MEL-2 melanoma
HT29 colon = system: HT29 colon
ACHN renal = system: ACHN renal
SF-268 CNS = system: SF-268 CNS
NCI-H226 lung = system: NCI-H226 lung
MALME-3M melanoma = system: MALME-3M melanoma
OVCAR-5 ovarian = system: OVCAR-5 ovarian
NCI-H23 lung = system: NCI-H23 lung
UO-31 renal = system: UO-31 renal
M14 melanoma = system: M14 melanoma
U251 CNS = system: U251 CNS
DU-145 prostate = system: DU-145 prostate
A549 NSCLC = system: A549 NSCLC
CCRF-CEM leukemia = system: CCRF-CEM leukemia
NCI-H522 lung = system: NCI-H522 lung
SNB-19 CNS = system: SNB-19 CNS
EKVX NSCLC = system: EKVX NSCLC
SK-MEL-5 melanoma = system: SK-MEL-5 melanoma
OVCAR-8 ovarian = system: OVCAR-8 ovarian
OVCAR-4 ovarian = system: OVCAR-4 ovarian
HL-60(TB) leukemia = system: HL-60(TB) leukemia
MOLT-4 leukemia = system: MOLT-4 leukemia
LOX IMVI melanoma = system: LOX IMVI melanoma
SN12C renal = system: SN12C renal
HCC-2998 colon = system: HCC-2998 colon
CAKI-1 renal = system: CAKI-1 renal
A498 renal = system: A498 renal
HS 578T breast = system: HS 578T breast
786-0 renal = system: 786-0 renal
K-562 leukemia = system: K-562 leukemia
SK-MEL-28 melanoma = system: SK-MEL-28 melanoma
MCF7 breast = system: MCF7 breast
RXF 393 renal = system: RXF 393 renal
SNB-75 CNS = system: SNB-75 CNS
T-47D breast = system: T-47D breast
OVCAR-3 ovarian = system: OVCAR-3 ovarian
NCI/ADR-RES ovarian = system: NCI/ADR-RES ovarian
SF-295 CNS = system: SF-295 CNS
UACC-257 melanoma = system: UACC-257 melanoma
HCT-15 colon = system: HCT-15 colon
HOP-62 NSCLC = system: HOP-62 NSCLC
SF-539 CNS = system: SF-539 CNS
NCI-H460 lung = system: NCI-H460 lung
TK-10 renal = system: TK-10 renal
MDA-MB-231 breast = system: MDA-MB-231 breast
RPMI-8226 leukemia = system: RPMI-8226 leukemia
BT-549 breast = system: BT-549 breast
COLO 205 colon = system: COLO 205 colon
MDA-MB-435 = system: MDA-MB-435
IGROV1 ovarian = system: IGROV1 ovarian
HOP-92 NSCLC = system: HOP-92 NSCLC
KM12 colon = system: KM12 colon
UACC-62 melanoma = system: UACC-62 melanoma
HCT-116 colon = system: HCT-116 colon
SK-OV-3 ovarian = system: SK-OV-3 ovarian

In the case of `C=CC(=O)N1C[C@@H]2CCOc3c(Cl)c(-c4c(O)cccc4F)c(F)c4ncnc(c34)N2C[C@H]1C`, the GI50 (PC-3 prostate) is reported as 17.9 µM, the TGI (PC-3 prostate) is reported as greater than 100 µM and the GI50 (SW-620 colon) is reported as 13.9 µM. For the same compound, the TGI (SW-620 colon) was 33.1 µM, the GI50 (SK-MEL-2 melanoma) was 14 µM and the TGI (SK-MEL-2 melanoma) was 28.7 µM. It also gave a GI50 (HT29 colon) of 18.6 µM, a TGI (HT29 colon) of 52.5 µM and a GI50 (ACHN renal) of 10.5 µM. The TGI (ACHN renal) was 22.2 µM, the GI50 (SF-268 CNS) was 12.5 µM and the TGI (SF-268 CNS) was 29.1 µM. The GI50 (NCI-H226 lung) was 13.1 µM, the TGI (NCI-H226 lung) was 45.2 µM and the GI50 (MALME-3M melanoma) was 10.8 µM. The TGI (MALME-3M melanoma) was 23.8 µM, the GI50 (OVCAR-5 ovarian) was 16.3 µM and the TGI (OVCAR-5 ovarian) was 31.1 µM. The GI50 (NCI-H23 lung) was 32.8 nM, the TGI (NCI-H23 lung) was 13.1 µM and the GI50 (UO-31 renal) was 12.3 µM. It also gave a TGI (UO-31 renal) of 25.3 µM, a GI50 (M14 melanoma) of 12.5 µM and a TGI (M14 melanoma) of 27.7 µM. For the same compound, the GI50 (U251 CNS) was 15 µM, the TGI (U251 CNS) was 36.2 µM and the GI50 (DU-145 prostate) was 10.5 µM. For the same compound, the TGI (DU-145 prostate) was 22.3 µM, the GI50 (A549 NSCLC) was 15.3 µM and the TGI (A549 NSCLC) was 34.7 µM. For the same compound, the GI50 (CCRF-CEM leukemia) was 11.5 µM, the TGI (CCRF-CEM leukemia) was greater than 100 µM and the GI50 (NCI-H522 lung) was 14.2 µM. It also gave a TGI (NCI-H522 lung) of 30.9 µM, a GI50 (SNB-19 CNS) of 14.6 µM and a TGI (SNB-19 CNS) of 28 µM. It also gave a GI50 (EKVX NSCLC) of 14.4 µM, a TGI (EKVX NSCLC) of 27.8 µM and a GI50 (SK-MEL-5 melanoma) of 13.1 µM. For the same compound, the TGI (SK-MEL-5 melanoma) was 25.9 µM, the GI50 (OVCAR-8 ovarian) was 16.5 µM and the TGI (OVCAR-8 ovarian) was 56.6 µM. The GI50 (OVCAR-4 ovarian) was 9.18 µM, the TGI (OVCAR-4 ovarian) was 72 µM and the GI50 (HL-60(TB) leukemia) was 4.81 µM. For the same compound, the TGI (HL-60(TB) leukemia) was 33.1 µM, the GI50 (MOLT-4 leukemia) was 5.79 µM and the TGI (MOLT-4 leukemia) was greater than 100 µM. For the same compound, the GI50 (LOX IMVI melanoma) was 12 µM, the TGI (LOX IMVI melanoma) was 24.4 µM and the GI50 (SN12C renal) was 13 µM. The TGI (SN12C renal) was 31.3 µM, the GI50 (HCC-2998 colon) was 15.2 µM and the TGI (HCC-2998 colon) was 28.8 µM. It also gave a GI50 (CAKI-1 renal) of 2670 nM, a TGI (CAKI-1 renal) of 19.4 µM and a GI50 (A498 renal) of 13.6 µM. The TGI (A498 renal) was 28.1 µM, the GI50 (HS 578T breast) was 16.5 µM and the TGI (HS 578T breast) was 89.2 µM. For the same compound, the GI50 (786-0 renal) was 14.7 µM, the TGI (786-0 renal) was 29.4 µM and the GI50 (K-562 leukemia) was 8.72 µM. It also gave a TGI (K-562 leukemia) greater than 100 µM, a GI50 (SK-MEL-28 melanoma) of 13.5 µM and a TGI (SK-MEL-28 melanoma) of 27.1 µM. It also gave a GI50 (MCF7 breast) of 14.1 µM, a TGI (MCF7 breast) of 34.5 µM and a GI50 (RXF 393 renal) of 2150 nM. The TGI (RXF 393 renal) was 15.1 µM, the GI50 (SNB-75 CNS) was 10.8 µM and the TGI (SNB-75 CNS) was 23.5 µM. The GI50 (T-47D breast) was 14.9 µM, the TGI (T-47D breast) was 87.4 µM and the GI50 (OVCAR-3 ovarian) was 6.11 µM. It also gave a TGI (OVCAR-3 ovarian) of 18.5 µM, a GI50 (NCI/ADR-RES ovarian) of 17.4 µM and a TGI (NCI/ADR-RES ovarian) of 62.6 µM. For the same compound, the GI50 (SF-295 CNS) was 15.6 µM, the TGI (SF-295 CNS) was 32.5 µM and the GI50 (UACC-257 melanoma) was 13 µM. For the same compound, the TGI (UACC-257 melanoma) was 30.3 µM, the GI50 (HCT-15 colon) was 11.8 µM and the TGI (HCT-15 colon) was 26.6 µM. For the same compound, the GI50 (HOP-62 NSCLC) was 50.7 nM, the TGI (HOP-62 NSCLC) was 25.5 µM and the GI50 (SF-539 CNS) was 12.9 µM. It also gave a TGI (SF-539 CNS) of 25.8 µM, a GI50 (NCI-H460 lung) of 15.2 µM and a TGI (NCI-H460 lung) of 32.1 µM. For the same compound, the GI50 (TK-10 renal) was 16.1 µM, the TGI (TK-10 renal) was 33.3 µM and the GI50 (MDA-MB-231 breast) was 11.5 µM. It also gave a TGI (MDA-MB-231 breast) of 27.7 µM, a GI50 (RPMI-8226 leukemia) of 5.96 µM and a TGI (RPMI-8226 leukemia) greater than 100 µM. It also gave a GI50 (BT-549 breast) of 2480 nM, a TGI (BT-549 breast) of 12.9 µM and a GI50 (COLO 205 colon) of 17.6 µM. The TGI (COLO 205 colon) was 35.9 µM, the GI50 (MDA-MB-435) was 11.8 µM and the TGI (MDA-MB-435) was 29.6 µM. For the same compound, the GI50 (IGROV1 ovarian) was 17.4 µM, the TGI (IGROV1 ovarian) was 46.6 µM and the GI50 (HOP-92 NSCLC) was 17 µM. For the same compound, the TGI (HOP-92 NSCLC) was 39 µM, the GI50 (KM12 colon) was 14.7 µM and the TGI (KM12 colon) was 36.1 µM. The GI50 (UACC-62 melanoma) was 4.17 µM, the TGI (UACC-62 melanoma) was 18.8 µM and the GI50 (HCT-116 colon) was 11.2 µM. The TGI (HCT-116 colon) was 24.5 µM, the GI50 (SK-OV-3 ovarian) was 17.3 µM and the TGI (SK-OV-3 ovarian) was 42.7 µM.
